Data: the NIST ThermoML archive (doi:10.1021/je060457+)
± gives the expanded uncertainty stated by the source.

Assay: xn = mol fraction of the nth substance listed
Conditions: 101 kPa, Liquid; for viscosity: Capillary tube (Ostwald / Ubbelohde) method; for mass density: Vibrating tube method

CNCCO [2-(methylamino)ethanol] + O
Conditions | mass density [kg/m3] | viscosity [mPa·s]
298.15 K, x1 = 0.0493 | – | 1.801 ± 0.023
298.15 K, x1 = 0.0499 | 996.45 ± 0.25 | –
298.15 K, x1 = 0.0657 | 996.78 ± 0.26 | 2.258 ± 0.029
298.15 K, x1 = 0.1054 | 997.9 ± 0.3 | 3.804 ± 0.049
298.15 K, x1 = 0.1987 | 996.03 ± 0.32 | 8.788 ± 0.11
298.15 K, x1 = 0.2946 | – | 13.51 ± 0.17
298.15 K, x1 = 0.301 | 988.25 ± 0.36 | –
298.15 K, x1 = 0.3834 | 980.24 ± 0.41 | –
298.15 K, x1 = 0.388 | – | 18.21 ± 0.23
298.15 K, x1 = 0.5041 | 968.81 ± 0.47 | 19.98 ± 0.26
298.15 K, x1 = 0.6 | 960.3 ± 0.52 | 19.11 ± 0.26
298.15 K, x1 = 0.6974 | 953.64 ± 0.57 | –
298.15 K, x1 = 0.7003 | – | 17.02 ± 0.23
298.15 K, x1 = 0.8009 | 946.63 ± 0.64 | –
298.15 K, x1 = 0.8019 | – | 14.38 ± 0.2
298.15 K, x1 = 0.898 | – | 12.46 ± 0.18
298.15 K, x1 = 0.9031 | 940.86 ± 0.7 | –
298.15 K, x1 = 1 | 936.18 ± 0.76 | 10.51 ± 0.16
303.15 K, x1 = 0.0493 | – | 1.556 ± 0.02
303.15 K, x1 = 0.0499 | 994.49 ± 0.25 | –
303.15 K, x1 = 0.0657 | 994.58 ± 0.26 | 1.927 ± 0.025
303.15 K, x1 = 0.1054 | 995.16 ± 0.27 | 3.169 ± 0.041
303.15 K, x1 = 0.1987 | 992.48 ± 0.32 | 6.987 ± 0.088
303.15 K, x1 = 0.2946 | – | 10.53 ± 0.13
303.15 K, x1 = 0.301 | 984.47 ± 0.36 | –
303.15 K, x1 = 0.3834 | 976.43 ± 0.4 | –
303.15 K, x1 = 0.388 | – | 14.11 ± 0.18
303.15 K, x1 = 0.5041 | 965 ± 0.47 | 15.44 ± 0.2
303.15 K, x1 = 0.6 | 956.5 ± 0.5 | 15.05 ± 0.2
303.15 K, x1 = 0.6974 | 949.81 ± 0.57 | –
303.15 K, x1 = 0.7003 | – | 13.42 ± 0.19
303.15 K, x1 = 0.8009 | 942.76 ± 0.63 | –
303.15 K, x1 = 0.8019 | – | 11.43 ± 0.16
303.15 K, x1 = 0.898 | – | 10 ± 0.14
303.15 K, x1 = 0.9031 | 936.96 ± 0.7 | –
303.15 K, x1 = 1 | 932.26 ± 0.76 | 8.522 ± 0.13
313.15 K, x1 = 0.0493 | – | 1.195 ± 0.015
313.15 K, x1 = 0.0499 | 990.11 ± 0.25 | –
313.15 K, x1 = 0.0657 | 989.79 ± 0.26 | 1.45 ± 0.019
313.15 K, x1 = 0.1054 | 989.39 ± 0.27 | 2.272 ± 0.029
313.15 K, x1 = 0.1987 | 985.28 ± 0.31 | 4.622 ± 0.059
313.15 K, x1 = 0.2946 | – | 6.748 ± 0.087
313.15 K, x1 = 0.301 | 976.815 ± 0.36 | –
313.15 K, x1 = 0.3834 | 968.73 ± 0.4 | –
313.15 K, x1 = 0.388 | – | 8.852 ± 0.12
313.15 K, x1 = 0.5041 | 957.32 ± 0.46 | 9.719 ± 0.13
313.15 K, x1 = 0.6 | 948.83 ± 0.51 | 9.424 ± 0.13
313.15 K, x1 = 0.6974 | 942.12 ± 0.57 | –
313.15 K, x1 = 0.7003 | – | 8.652 ± 0.12
313.15 K, x1 = 0.8009 | 935.01 ± 0.63 | –
313.15 K, x1 = 0.8019 | – | 7.547 ± 0.11
313.15 K, x1 = 0.898 | – | 6.716 ± 0.098
313.15 K, x1 = 0.9031 | 929.16 ± 0.69 | –
313.15 K, x1 = 1 | 924.42 ± 0.75 | 5.833 ± 0.087
323.15 K, x1 = 0.0493 | – | 0.9978 ± 0.013
323.15 K, x1 = 0.0499 | 985.07 ± 0.25 | –
323.15 K, x1 = 0.0657 | 984.41 ± 0.26 | 1.133 ± 0.015
323.15 K, x1 = 0.1054 | 983.17 ± 0.27 | 1.643 ± 0.021
323.15 K, x1 = 0.1987 | 977.79 ± 0.31 | 3.242 ± 0.042
323.15 K, x1 = 0.2946 | – | 4.581 ± 0.059
323.15 K, x1 = 0.301 | 968.97 ± 0.36 | –
323.15 K, x1 = 0.3834 | 960.83 ± 0.4 | –
323.15 K, x1 = 0.388 | – | 5.886 ± 0.077
323.15 K, x1 = 0.5041 | 949.46 ± 0.46 | 6.458 ± 0.087
323.15 K, x1 = 0.6 | 940.99 ± 0.51 | 6.319 ± 0.086
323.15 K, x1 = 0.6974 | 934.27 ± 0.56 | –
323.15 K, x1 = 0.7003 | – | 5.881 ± 0.082
323.15 K, x1 = 0.8009 | 927.12 ± 0.62 | –
323.15 K, x1 = 0.8019 | – | 5.229 ± 0.075
323.15 K, x1 = 0.898 | – | 4.725 ± 0.069
323.15 K, x1 = 0.9031 | 921.24 ± 0.68 | –
323.15 K, x1 = 1 | 916.48 ± 0.74 | 4.177 ± 0.063
333.15 K, x1 = 0.0493 | – | 0.817 ± 0.01
333.15 K, x1 = 0.0499 | 979.47 ± 0.25 | –
333.15 K, x1 = 0.0657 | 978.52 ± 0.26 | 0.9621 ± 0.013
333.15 K, x1 = 0.1054 | 976.55 ± 0.27 | –
333.15 K, x1 = 0.1987 | 970.11 ± 0.31 | 2.379 ± 0.03
333.15 K, x1 = 0.2946 | – | 3.261 ± 0.042
333.15 K, x1 = 0.301 | 960.9 ± 0.4 | –
333.15 K, x1 = 0.3834 | 952.72 ± 0.4 | –
333.15 K, x1 = 0.388 | – | 4.107 ± 0.054
333.15 K, x1 = 0.5041 | 941.41 ± 0.45 | 4.499 ± 0.061
333.15 K, x1 = 0.6 | 932.98 ± 0.5 | 4.429 ± 0.061
333.15 K, x1 = 0.6974 | 926.28 ± 0.56 | –
333.15 K, x1 = 0.7003 | – | 4.177 ± 0.059
333.15 K, x1 = 0.8009 | 919.16 ± 0.61 | –
333.15 K, x1 = 0.8019 | – | 3.78 ± 0.054
333.15 K, x1 = 0.898 | – | 3.463 ± 0.051
333.15 K, x1 = 0.9031 | 913.22 ± 0.67 | –
333.15 K, x1 = 1 | 908.46 ± 0.73 | 3.108 ± 0.047
343.15 K, x1 = 0.0493 | – | 0.6997 ± 0.009
343.15 K, x1 = 0.0499 | 973.37 ± 0.25 | –
343.15 K, x1 = 0.0657 | 972.17 ± 0.26 | 0.7903 ± 0.01
343.15 K, x1 = 0.1054 | 969.57 ± 0.27 | 1.023 ± 0.013
343.15 K, x1 = 0.1987 | 962.17 ± 0.31 | 1.747 ± 0.023
343.15 K, x1 = 0.2946 | – | 2.416 ± 0.032
343.15 K, x1 = 0.301 | 952.65 ± 0.36 | –
343.15 K, x1 = 0.3834 | 944.43 ± 0.39 | –
343.15 K, x1 = 0.388 | – | 2.986 ± 0.04
343.15 K, x1 = 0.5041 | 933.17 ± 0.45 | 3.255 ± 0.044
343.15 K, x1 = 0.6 | 924.8 ± 0.5 | 3.227 ± 0.045
343.15 K, x1 = 0.6974 | 918.16 ± 0.55 | –
343.15 K, x1 = 0.7003 | – | 3.075 ± 0.043
343.15 K, x1 = 0.8009 | 911 ± 0.61 | –
343.15 K, x1 = 0.8019 | – | 2.827 ± 0.041
343.15 K, x1 = 0.898 | – | 2.618 ± 0.039
343.15 K, x1 = 0.9031 | 905.06 ± 0.67 | –
343.15 K, x1 = 1 | 900.3 ± 0.72 | 2.385 ± 0.036
